According to the NIST ThermoML archive (doi:10.1016/j.tca.2019.178318):
Numbers after ± are expanded uncertainties. Each block holds one molecule with its values, some of them ahead of it.

Conditions: Liquid, Ebulliometric method (Recirculating still)

SMILES: C=C1C2CCC(C2)C1(C)C (stereo unspecified) [2,2-dimethyl-3-methylenebicyclo[2.2.1]heptane]
- vapor or sublimation pressure (432.73 K): 101.33 ± 4.1 kPa
- vapor or sublimation pressure (432.74 K): 101.33 ± 4.1 kPa
- vapor or sublimation pressure (432.76 K): 101.33 ± 4.1 kPa
- vapor or sublimation pressure (432.8 K): 101.33 ± 4.1 kPa

SMILES: Cc1ccc(C(C)C)cc1 [1-(1-methylethyl)-4-methylbenzene]
- vapor or sublimation pressure (449.7 K): 101.33 ± 4.1 kPa

SMILES: C=C1CC/C=C(\C)CC[C@@H]2[C@@H]1CC2(C)C
- vapor or sublimation pressure (526.4 K): 101.33 ± 4.1 kPa
- vapor or sublimation pressure (526.47 K): 101.33 ± 4.1 kPa
- vapor or sublimation pressure (526.53 K): 101.33 ± 4.1 kPa

The next lines start with the values.

- vapor or sublimation pressure (442.63 K): 101.33 ± 4.1 kPa
SMILES: CC1=CC[C@@H]2[C@H](C1)C2(C)C [(+)-3-carene]

- vapor or sublimation pressure (428.64 K): 101.33 ± 4.1 kPa
- vapor or sublimation pressure (428.65 K): 101.33 ± 4.1 kPa
SMILES: CC1=CCC2CC1C2(C)C (stereo unspecified) [2-pinene]
